In PubChem BioAssay (NCI):
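Method: 48-hour compound exposure of cells in 96-well plates, five concentrations, linear interpolation of endpoints. TGI: total growth inhibition.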

Legend:
Test in all cases: NCI anticancer screen, dose series, 48 h
[1] = test system: MALME-3M melanoma
[2] = test system: HS 578T breast
[3] = test system: UACC-257 melanoma
[4] = test system: HT29 colon
[5] = test system: SF-268 CNS
[6] = test system: SW-620 colon
[7] = test system: U251 CNS
[8] = test system: DU-145 prostate
[9] = test system: UACC-62 melanoma
[10] = test system: A498 renal
[11] = test system: KM12 colon
[12] = test system: MDA-N

SMILES	TGI [1]	TGI [2]	TGI [3]	TGI [4]	TGI [5]	TGI [6]	TGI [7]	TGI [8]	TGI [9]	TGI [10]	TGI [11]	TGI [12]
COc1ccc(NC2Oc3cc4c(cc3C(c3cc(OC)c(OC)c(OC)c3)C2C)OCO4)cc1 (stereo not given)	> 100 µM	> 100 µM	> 78.5 µM	> 100 µM	> 100 µM	> 100 µM	11.6 µM	> 91.4 µM	> 100 µM	0.92 µM	> 31.6 µM	
CC(C)CCNC(=O)c1ccc(CNC(=O)/C=C/c2ccc(OCc3ccccc3)cc2)cc1			> 100 µM	> 100 µM	> 100 µM	> 100 µM	> 100 µM	> 100 µM	> 100 µM	> 100 µM	> 100 µM	> 100 µM
CC(=O)CC(=O)c1cc2c(=O)oc(C)cc2oc1=O	> 37.5 µM		> 37.5 µM	> 37.5 µM	> 37.5 µM	> 37.5 µM	> 37.5 µM	> 37.5 µM	> 37.5 µM		> 37.5 µM	> 37.5 µM
O=C(O[C@H](/C=C/c1ccccc1)P1(=O)N(Cc2ccccc2)[C@@H]2CCCC[C@H]2N1Cc1ccccc1)c1ccccc1	12 µM	> 100 µM	> 100 µM	18.4 µM	> 100 µM	> 100 µM	31.3 µM		40 µM	> 100 µM	14.2 µM	> 100 µM
CCN(CC)CCCn1c(=O)c2cccnc2n2c3c(=O)n(C)c(=O)n(C)c3nc12	> 100 µM	> 100 µM	> 100 µM	> 100 µM	> 100 µM	> 100 µM	> 100 µM	> 100 µM	> 100 µM		> 100 µM	> 100 µM
O=C(OCc1ccccc1)OOC(=O)OCc1ccccc1	> 100 µM		> 100 µM	> 100 µM	> 100 µM	> 100 µM	> 100 µM		> 100 µM	> 100 µM	> 100 µM	
CC(C)(CO)N1C(=O)c2ccccc2C1(O)c1ccc(Cl)cc1 (stereo not given)	> 100 µM	> 100 µM	> 100 µM	> 100 µM	> 100 µM	> 100 µM	> 100 µM	> 100 µM	> 100 µM		> 100 µM	> 100 µM
N#Cc1c(OCCF)c2ccccc2n2c1nc1ccccc12		> 100 µM	> 100 µM	> 100 µM	> 100 µM	> 100 µM	> 100 µM	> 100 µM	> 100 µM	> 100 µM	> 100 µM	> 100 µM
CC(=O)/C(=C/n1c(=S)sc2ccccc21)C(=O)Nc1ccccc1C			> 100 µM	> 100 µM	> 100 µM	> 100 µM	> 100 µM	> 100 µM	> 100 µM	> 100 µM	> 100 µM	> 100 µM
N#Cc1c2c(c(Nc3ccc(F)cc3)n3c1nc1ccccc13)CCC2	19.9 µM		24.1 µM	3.61 µM	18.1 µM	5.71 µM	8.01 µM	13.9 µM	25.1 µM	28.8 µM	23.7 µM	9.75 µM
COc1ccc(CNc2nc3ccc(C(F)(F)F)cc3nc2-c2ccccc2)cc1OC	> 100 µM		> 100 µM	> 100 µM	> 100 µM	> 100 µM	> 100 µM		> 100 µM			
OCc1ccccc1C1CSCSC1	> 100 µM		> 100 µM	> 100 µM	> 100 µM	> 100 µM	> 100 µM		> 100 µM		> 100 µM	
CC1CC(C#N)=C2NCCCCN2C1=O (stereo not given)	> 100 µM	> 100 µM	> 100 µM	> 100 µM	> 100 µM	> 100 µM	> 100 µM	> 100 µM	> 100 µM		> 100 µM	> 100 µM
CCOC(=O)C(=O)N1C(C)=C(C(=O)OCC)CC(C(=O)OCC)=C1C	> 100 µM	> 100 µM	> 100 µM			> 100 µM		> 100 µM	> 100 µM	> 100 µM	> 100 µM	> 100 µM
O=C1C(C=NCCc2c[nH]c3ccccc23)C(C(F)(F)F)=NN1c1nc2ccccc2s1 (stereo not given)	> 100 µM	> 100 µM	41.9 µM	88 µM	> 100 µM	> 100 µM	> 100 µM	79.5 µM	43.6 µM	42.1 µM		> 100 µM
O=C(O)Cc1ccc2nc(COC(=O)c3ccccc3)sc2c1	> 100 µM	> 100 µM	> 100 µM		> 100 µM	> 100 µM	> 100 µM	> 100 µM	> 100 µM	> 100 µM	> 100 µM	> 100 µM
c1ccc(N=c2snc(-c3ccccc3)s2)cc1	> 100 µM		> 100 µM		> 100 µM	> 100 µM	> 100 µM		> 100 µM	> 100 µM	> 100 µM	

SMILES	TGI [1]	TGI [2]	TGI [3]	TGI [4]	TGI [5]	TGI [6]	TGI [7]	TGI [8]	TGI [9]	TGI [10]	TGI [11]	TGI [12]
O=c1nc2c(c(-c3cccc(Cl)c3)[nH]1)COC/C2=C\c1cccc(Cl)c1		> 100 µM	> 100 µM		> 100 µM	> 100 µM	> 100 µM	> 100 µM	> 100 µM	> 100 µM	> 100 µM	> 100 µM
COc1ccc2c(c1)C(=O)c1ccccc1C2		> 100 µM	> 100 µM	> 100 µM	> 100 µM	> 100 µM	> 100 µM	35 µM	> 100 µM	> 100 µM	> 100 µM	> 100 µM
N#CSCc1cccc(Nc2cc(=O)[nH]c(=O)[nH]2)c1	> 100 µM	> 100 µM	> 100 µM	> 100 µM	78.4 µM	> 100 µM	> 100 µM		> 100 µM	> 100 µM	> 100 µM	> 100 µM
N#CC(C#N)=C1CCCS(=O)(=O)c2ccccc21		> 100 µM	> 100 µM	> 100 µM	> 100 µM	> 100 µM	> 100 µM	> 100 µM	> 100 µM	> 100 µM	> 100 µM	> 100 µM
O=C(O)CNC(=O)c1ccc([As](=O)(O)O)cc1	> 100 µM	> 100 µM		> 100 µM	> 100 µM	> 100 µM	> 100 µM	> 100 µM	> 100 µM	> 100 µM	> 100 µM	> 100 µM
CCOC(=O)C1CC(O)C(=O)N1C (stereo not given)			> 100 µM	> 100 µM			> 100 µM	> 100 µM	> 100 µM			> 100 µM
O=c1c2cc(I)ccc2[nH]c(=S)n1Cc1ccccc1		58.9 µM	> 100 µM	> 100 µM	57.5 µM	> 100 µM	> 100 µM	> 100 µM	> 100 µM	54.3 µM	> 100 µM	> 100 µM
CC(=O)Nc1ccc(Cl)c(Cl)c1	> 100 µM		> 100 µM	> 100 µM	> 100 µM	> 100 µM	> 100 µM		> 100 µM		> 100 µM	
CC1=C2c3ccccc3N(C(=O)/C=C/C(=O)O)[C@H]2[C@H]2C(=O)OC(=O)[C@H]2C1	> 10 µM	> 10 µM		> 10 µM	> 10 µM	> 10 µM	> 10 µM	> 10 µM	> 10 µM	> 10 µM	> 10 µM	> 10 µM
CC(C)=CC1C(C(=O)O)C1(C)C (stereo not given)	> 750 µM		> 750 µM	> 750 µM	> 750 µM	> 750 µM	> 750 µM		> 750 µM	> 34.8 µM	> 750 µM	
O=C1C(Cl)N(c2ccccc2)C1c1c[nH]c2ccccc12 (stereo not given)	> 100 µM		> 100 µM	> 100 µM	> 100 µM	> 100 µM	> 100 µM		> 100 µM		> 100 µM	
Cc1cc2cccc(Cl)c2nc1C(=O)c1ccccc1	> 100 µM		66.9 µM		> 100 µM	> 100 µM	> 100 µM		> 100 µM		> 100 µM	
Cc1oc2nc(N(C)C)n3nnnc3c2c1C		> 100 µM	> 100 µM	> 100 µM	> 100 µM	> 100 µM	> 100 µM	> 100 µM	> 100 µM	> 100 µM	> 100 µM	
COC(c1ccc(C(C)(C)C)cc1)(c1ccc(C(C)(C)C)cc1)c1cc(C(O)(c2cc(C(OC)(c3ccc(C(C)(C)C)cc3)c3ccc(C(C)(C)C)cc3)c(C)cc2C)c2cc(C(OC)(c3ccc(C(C)(C)C)cc3)c3ccc(C(C)(C)C)cc3)c(C)cc2C)c(C)cc1C	> 100 µM	> 100 µM	> 100 µM	> 100 µM	> 100 µM	> 100 µM	> 100 µM	> 100 µM	> 100 µM	> 100 µM		> 100 µM
CN(O)C(=O)Cc1ccc(OCc2cccc(Cl)c2)cc1		> 100 µM	> 100 µM	> 100 µM	> 100 µM	> 100 µM	> 100 µM	> 100 µM	> 100 µM	94.3 µM	> 100 µM	> 100 µM
COc1cc2c(cc1OC)C(=O)/C(=C/c1cc(C)c(O)c(C)c1)C2	40.1 µM	> 100 µM	> 100 µM		> 100 µM	> 100 µM	> 100 µM	> 100 µM	> 100 µM	> 100 µM		
